Test results from patent US20200085776A1, “Methods of Reducing C-Reactive Protein and/or Treating Cardiovascular Disease” (CARDAX, INC., priority 2018, published 2020).

What was measured:
[1] = tested on: Triglycerides; assay: Fasting lipid panel: triglycerides, CHASE clinical study; format: in vivo, human; conditions: for Triglycerides V2 to V6 % Change Max / Triglycerides V2 to V6 % Change Mean (SD) / Triglycerides V2 to V6 % Change Median / Triglycerides V2 to V6 % Change Min / Triglycerides V2 to V6 Change Max / Triglycerides V2 to V6 Change Mean (SD) / Triglycerides V2 to V6 Change Median / Triglycerides V2 to V6 Change Min: baseline to Week 12
Description: (§1) Blood samples shall be obtained under fasted conditions for a lipid panel at V2, V4, V6, V7, and V8. This panel shall include total cholesterol, LDL-C, VLDL-C, HDL-C, and triglycerides. A minimum eight-hour fast (water allowed) is required for the lipid panel.
(§2) Fasting lipid profiles and fasting chemistry panels may be obtained within the visit time window on a day separate from the scheduled office visit, within two days before or after the other study procedures. A minimum of eight hours fasted (water allowed ad lib) is required.
(§3) Table 7M provides the changes in lipid levels (mg/dL) (V2 to V6) for subjects.

[2] = tested on: Cholesterol; assay: Fasting lipid panel: total cholesterol, CHASE clinical study; format: in vivo, human; conditions: for Cholesterol V2 to V6 % Change Max / Cholesterol V2 to V6 % Change Mean (SD) / Cholesterol V2 to V6 % Change Median / Cholesterol V2 to V6 % Change Min / Cholesterol V2 to V6 Change Max / Cholesterol V2 to V6 Change Mean (SD) / Cholesterol V2 to V6 Change Median / Cholesterol V2 to V6 Change Min: baseline to Week 12
Description: as §1, §2, §3

[3] = Group X 12 mg BID, V2 baseline pre-dose, all subjects
[4] = Group X 12 mg BID, V2 baseline pre-dose, subjects with hyperlipidemia
[5] = Group X 12 mg BID, V6 Week 12, all subjects
[6] = Group X 12 mg BID, V6 Week 12, subjects with hyperlipidemia
[7] = Group X 12 mg BID, all subjects
[8] = Group X 12 mg BID, subjects with hyperlipidemia
[9] = Group Z 48 mg BID, V2 baseline pre-dose, all subjects
[10] = Group Z 48 mg BID, V2 baseline pre-dose, subjects with hyperlipidemia
[11] = Group Z 48 mg BID, V6 Week 12, all subjects
[12] = Group Z 48 mg BID, V6 Week 12, subjects with hyperlipidemia
[13] = Group Z 48 mg BID, all subjects
[14] = Group Z 48 mg BID, subjects with hyperlipidemia

## CC1=C(/C=C/C(C)=C/C=C/C(C)=C/C=C/C=C(C)/C=C/C=C(C)/C=C/C2=C(C)C(=O)C(O)CC2(C)C)C(C)(C)CC(O)C1=O (centres unmarked) [Astaxanthin, astaxanthin]
[1]; [3]
  Triglycerides Max: 482.0 mg/dL
  Triglycerides Mean (SD): 201.9 (122.2) mg/dL
  Triglycerides Median: 177.0 mg/dL
  Triglycerides Min: 59.00 mg/dL
[1]; [4]
  Triglycerides Max: 482.0 mg/dL
  Triglycerides Mean (SD): 235.8 (126.1) mg/dL
  Triglycerides Median: 253.5 mg/dL
  Triglycerides Min: 80.00 mg/dL
[1]; [5]
  Triglycerides Max: 420.0 mg/dL
  Triglycerides Mean (SD): 177.4 (109.8) mg/dL
  Triglycerides Median: 131.0 mg/dL
  Triglycerides Min: 70.00 mg/dL
[1]; [6]
  Triglycerides Max: 420.0 mg/dL
  Triglycerides Mean (SD): 202.3 (120.2) mg/dL
  Triglycerides Median: 211.5 mg/dL
  Triglycerides Min: 70.00 mg/dL
[1]; [7]
  Triglycerides V2 to V6 % Change Max: 42.37%
  Triglycerides V2 to V6 % Change Mean (SD): −7.10 (27.88) %
  Triglycerides V2 to V6 % Change Median: −12.9%
  Triglycerides V2 to V6 % Change Min: −61.5%
  Triglycerides V2 to V6 Change Max: 56.00 mg/dL
  Triglycerides V2 to V6 Change Mean (SD): −24.6 (59.47) mg/dL
  Triglycerides V2 to V6 Change Median: -26.0 mg/dL
  Triglycerides V2 to V6 Change Min: -166 mg/dL
[1]; [8]
  Triglycerides V2 to V6 % Change Max: 22.76%
  Triglycerides V2 to V6 % Change Mean (SD): −12.9 (26.00) %
  Triglycerides V2 to V6 % Change Median: −14.5%
  Triglycerides V2 to V6 % Change Min: −61.5%
  Triglycerides V2 to V6 Change Max: 56.00 mg/dL
  Triglycerides V2 to V6 Change Mean (SD): −33.5 (66.92) mg/dL
  Triglycerides V2 to V6 Change Median: -34.0 mg/dL
  Triglycerides V2 to V6 Change Min: -166 mg/dL
[1]; [9]
  Triglycerides Max: 1677 mg/dL
  Triglycerides Mean (SD): 283.5 (368.2) mg/dL
  Triglycerides Median: 175.0 mg/dL
  Triglycerides Min: 75.00 mg/dL
[1]; [10]
  Triglycerides Max: 1677 mg/dL
  Triglycerides Mean (SD): 321.9 (407.8) mg/dL
  Triglycerides Median: 182.0 mg/dL
  Triglycerides Min: 82.00 mg/dL
[1]; [11]
  Triglycerides Max: 650.0 mg/dL
  Triglycerides Mean (SD): 192.2 (155.1) mg/dL
  Triglycerides Median: 145.5 mg/dL
  Triglycerides Min: 63.00 mg/dL
[1]; [12]
  Triglycerides Max: 650.0 mg/dL
  Triglycerides Mean (SD): 213.1 (170.3) mg/dL
  Triglycerides Median: 149.5 mg/dL
  Triglycerides Min: 76.00 mg/dL
[1]; [13]
  Triglycerides V2 to V6 % Change Max: 115.2%
  Triglycerides V2 to V6 % Change Mean (SD): −0.96 (43.74) %
  Triglycerides V2 to V6 % Change Median: −16.2%
  Triglycerides V2 to V6 % Change Min: −49.5%
  Triglycerides V2 to V6 Change Max: 348.0 mg/dL
  Triglycerides V2 to V6 Change Mean (SD): −9.89 (109.9) mg/dL
  Triglycerides V2 to V6 Change Median: -24.5 mg/dL
  Triglycerides V2 to V6 Change Min: -178 mg/dL
[1]; [14]
  Triglycerides V2 to V6 % Change Max: 115.2%
  Triglycerides V2 to V6 % Change Mean (SD): 0.07 (48.86) %
  Triglycerides V2 to V6 % Change Median: −21.5%
  Triglycerides V2 to V6 % Change Min: −49.5%
  Triglycerides V2 to V6 Change Max: 348.0 mg/dL
  Triglycerides V2 to V6 Change Mean (SD): −12.0 (124.4) mg/dL
  Triglycerides V2 to V6 Change Median: -29.0 mg/dL
  Triglycerides V2 to V6 Change Min: -178 mg/dL
[2]; [3]
  Cholesterol Max: 342.0 mg/dL
  Cholesterol Mean (SD): 192.0 (65.49) mg/dL
  Cholesterol Median: 180.0 mg/dL
  Cholesterol Min: 113. mg/dL
[2]; [4]
  Cholesterol Max: 342.0 mg/dL
  Cholesterol Mean (SD): 184.5 (73.91) mg/dL
  Cholesterol Median: 164.0 mg/dL
  Cholesterol Min: 113.0 mg/dL
[2]; [5]
  Cholesterol Max: 339.0 mg/dL
  Cholesterol Mean (SD): 182.6 (70.21) mg/dL
  Cholesterol Median: 163.0 mg/dL
  Cholesterol Min: 117.0 mg/dL
[2]; [6]
  Cholesterol Max: 339.0 mg/dL
  Cholesterol Mean (SD): 170.3 (74.95) mg/dL
  Cholesterol Median: 137.5 mg/dL
  Cholesterol Min: 117.0 mg/dL
[2]; [7]
  Cholesterol V2 to V6 % Change Max: 6.67%
  Cholesterol V2 to V6 % Change Mean (SD): −5.34 (10.55) %
  Cholesterol V2 to V6 % Change Median: −4.90%
  Cholesterol V2 to V6 % Change Min: −25.0%
  Cholesterol V2 to V6 Change Max: 17.00 mg/dL
  Cholesterol V2 to V6 Change Mean (SD): −9.45 (18.08) mg/dL
  Cholesterol V2 to V6 Change Median: -7.00 mg/dL
  Cholesterol V2 to V6 Change Min: -39.0 mg/dL
[2]; [8]
  Cholesterol V2 to V6 % Change Max: 6.20%
  Cholesterol V2 to V6 % Change Mean (SD): −7.65 (11.10) %
  Cholesterol V2 to V6 % Change Median: −6.92%
  Cholesterol V2 to V6 % Change Min: −25.0%
  Cholesterol V2 to V6 Change Max: 8.00 mg/dL
  Cholesterol V2 to V6 Change Mean (SD): −14.3 (17.60) mg/dL
  Cholesterol V2 to V6 Change Median: -14.0 mg/dL
  Cholesterol V2 to V6 Change Min: -39.0 mg/dL
[2]; [9]
  Cholesterol Max: 316.0 mg/dL
  Cholesterol Mean (SD): 195.1 (57.82) mg/dL
  Cholesterol Median: 190.0 mg/dL
  Cholesterol Min: 121.0 mg/dL
[2]; [10]
  Cholesterol Max: 316.0 mg/dL
  Cholesterol Mean (SD): 189.7 (58.32) mg/dL
  Cholesterol Median: 173.0 mg/dL
  Cholesterol Min: 121.0 mg/dL
[2]; [11]
  Cholesterol Max: 284.0 mg/dL
  Cholesterol Mean (SD): 169.7 (45.52) mg/dL
  Cholesterol Median: 160.5 mg/dL
  Cholesterol Min: 104.0 mg/dL
[2]; [12]
  Cholesterol Max: 284.0 mg/dL
  Cholesterol Mean (SD): 161.9 (46.52) mg/dL
  Cholesterol Median: 151.0 mg/dL
  Cholesterol Min: 104.0 mg/dL
[2]; [13]
  Cholesterol V2 to V6 % Change Max: 15.86%
  Cholesterol V2 to V6 % Change Mean (SD): −8.52 (14.73) %
  Cholesterol V2 to V6 % Change Median: −8.29%
  Cholesterol V2 to V6 % Change Min: −38.0%
  Cholesterol V2 to V6 Change Max: 32.00 mg/dL
  Cholesterol V2 to V6 Change Mean (SD): −18.6 (31.99) mg/dL
  Cholesterol V2 to V6 Change Median: -13.5 mg/dL
  Cholesterol V2 to V6 Change Min: -92.0 mg/dL
[2]; [14]
  Cholesterol V2 to V6 % Change Max: 15.86%
  Cholesterol V2 to V6 % Change Mean (SD): −9.11 (16.06) %
  Cholesterol V2 to V6 % Change Median: −8.48%
  Cholesterol V2 to V6 % Change Min: −38.0%
  Cholesterol V2 to V6 Change Max: 32.00 mg/dL
  Cholesterol V2 to V6 Change Mean (SD): −18.8 (33.97) mg/dL
  Cholesterol V2 to V6 Change Median: -13.5 mg/dL
  Cholesterol V2 to V6 Change Min: -92.0 mg/dL
